Test results taken from PubChem BioAssay (NCI).
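Protocol summary: plate cells (96-well), add compound at 5 concentrations, incubate 48 h, interpolate endpoints linearly. TGI: concentration producing complete growth inhibition.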

Assays:
Experiment in all cases: growth of human tumour cells (NCI), 48 h
HT29 colon = test system: HT29 colon
MDA-N = test system: MDA-N
MDA-MB-231 breast = test system: MDA-MB-231 breast
K-562 leukemia = test system: K-562 leukemia
U251 CNS = test system: U251 CNS
SK-MEL-2 melanoma = test system: SK-MEL-2 melanoma
SF-268 CNS = test system: SF-268 CNS
PC-3 prostate = test system: PC-3 prostate
UACC-62 melanoma = test system: UACC-62 melanoma
NCI-H226 lung = test system: NCI-H226 lung
EKVX NSCLC = test system: EKVX NSCLC
UO-31 renal = test system: UO-31 renal
A549 NSCLC = test system: A549 NSCLC
BT-549 breast = test system: BT-549 breast
SK-MEL-28 melanoma = test system: SK-MEL-28 melanoma
LOX IMVI melanoma = test system: LOX IMVI melanoma
CCRF-CEM leukemia = test system: CCRF-CEM leukemia
SF-539 CNS = test system: SF-539 CNS

Row | Compound | TGI (HT29 colon) [µM] | TGI (MDA-N) [µM] | TGI (MDA-MB-231 breast) [µM] | TGI (K-562 leukemia) [µM] | TGI (U251 CNS) [µM] | TGI (SK-MEL-2 melanoma) [µM] | TGI (SF-268 CNS) [µM] | TGI (PC-3 prostate) [µM] | TGI (UACC-62 melanoma) [µM] | TGI (NCI-H226 lung) [µM] | TGI (EKVX NSCLC) [µM] | TGI (UO-31 renal) [µM] | TGI (A549 NSCLC) [µM] | TGI (BT-549 breast) [µM] | TGI (SK-MEL-28 melanoma) [µM] | TGI (LOX IMVI melanoma) [µM] | TGI (CCRF-CEM leukemia) [µM] | TGI (SF-539 CNS) [µM]
1 | CC(=O)NNc1nc(C)c(C(/C=C/c2ccc([N+](=O)[O-])cc2)=N/N)s1 | > 100 | > 100 | 95.4 | > 100 | > 100 | > 100 | > 100 | > 100 | > 100 | > 100 | > 100 | > 100 | > 100 | > 100 | > 100 | > 100 | > 100 | > 100
2 | S=C1Cc2c(-c3ccc(Cl)cc3)cc(-c3ccccc3)nc2-c2ccccc2N1 | 21.6 | 30.4 | 23.8 | > 100 | > 100 | 37.6 | 34.6 | 44 | 41.3 | 55.7 | 54.9 | 35.8 | 25.5 | 35 | > 100 | 35.2 | > 100 | 16.2
3 | CC(=O)c1c(SCCN2CCCC2)n(-c2ccccc2)c(=S)n(-c2ccccc2)c1=O | 20.7 | 19.9 | 23.4 | > 26.7 | 47.9 | 50.8 | 33.2 | 10.8 | 20 | 54.1 | 37.3 | 2.73 | 15.1 | 28.6 | 14.2 | 9.04 | 4.01 | 12.5
4 | CCCN1CC=C(c2cc(C(=O)OCC)[nH]c2-c2cc(C)no2)C1=O | > 100 | > 100 | > 100 | > 100 | > 100 | > 100 | > 100 | > 100 | > 100 | > 100 | > 100 | > 100 | > 100 | > 100 | > 100 | > 100 | > 100 | > 100
5 | C/C(=C\c1ccccc1)C(=O)NCc1ccc(C(=O)NCCC(C)C)cc1 | > 100 | > 100 | > 100 | > 100 | > 100 | > 100 | > 100 | > 100 | > 100 | > 100 | > 100 | > 100 | > 100 | > 100 | > 100 | > 100 | > 100 | > 100
6 | COC(=O)C1CCOC(C)N1C(=O)OC(C)(C)C (stereo not given) | > 100 | > 100 | > 100 | > 100 | > 100 | > 100 | > 100 | > 100 | > 100 | > 100 | > 100 | > 100 | > 100 | > 100 | > 100 | > 100 | > 100 | > 100
7 | Cc1cc(NS(=O)(=O)c2ccc(NC(=O)c3ccc4[nH]c5ccccc5c(=O)c4c3)cc2)no1 | > 100 | > 100 | > 100 | > 100 | > 100 | > 100 | > 100 | > 100 | > 100 | > 100 | > 100 | > 100 | > 100 | > 100 | > 100 | > 100 | > 100 | > 100
8 | O=C1CCCC2C(O)CCC[C@H]12 (stereo not given in full) | > 100 | > 100 | > 100 | > 100 | > 100 | > 100 | > 100 | > 100 | > 100 | > 100 | > 100 | > 100 | > 100 | > 100 | > 100 | > 100 | > 100 | > 100
9 | O=c1[nH]c2ccc(Cl)cc2c2oc(-c3ccccc3)nc12 | > 100 | > 100 | 43.4 | > 100 | 36.8 | 57.5 | > 100 | > 100 | > 100 | 42.3 | 89.8 | 44.2 | 54.3 | > 100 | – | > 100 | > 100 | > 100
10 | O=C(N/N=C(/COc1ccc(Cl)cc1)N=Cc1cccnc1)c1ccncc1 | > 100 | 65.8 | > 100 | > 100 | > 100 | > 100 | > 100 | > 100 | > 100 | > 100 | > 100 | – | > 100 | > 100 | > 100 | > 100 | > 100 | > 100
11 | O=Cc1c2ccccc2n2ccc3c4ccccc4[nH]c3c12 | > 10 | > 10 | > 10 | > 10 | > 10 | > 10 | > 10 | > 10 | > 10 | > 10 | > 10 | > 10 | > 10 | > 10 | – | > 10 | > 10 | > 10
